Test results as given in patent US9951088B2, “D2 receptor modulators and methods of use thereof in the treatment of diseases and disorders” (SUNOVION PHARMACEUTICALS INC., priority 2012, dated 2018).

How the values were obtained:
[1] = target: T1, long isoform of human D2 receptor (Homo sapiens, UniProt P14416); assay: Arrestin Agonist Assay (DRD2L PathHunter CHO-K1 cells, β-arrestin recruitment); conditions: for Emax: CHO-K1, read-out: β-arrestin (agonist mode) Emax
Procedure: Cell Lines: Activities of the compounds were assessed using a Chinese Hamster Ovary (CHO—K1) cell line that recombinantly expressed the long isoform of human D2 receptor (DRD2L PathHunter cells). The D2 receptor DNA sequence was modified to contain a “ProLink” at its C-terminus which allowed complementation with an “enzyme acceptor” (EA)-tagged β-arrestin protein. The recruitment of the O-arrestin by the D2 receptor led to complementation of the ProLink and EA and formation of active β-galactosidase which generated a D2-specific signal that was measured.
Arrestin Agonist Assay: One day prior to testing, a vial of high density stock of DRD2L PathHunter cells was thawed, and 1×10^7 cells diluted into 40 mL of growth media (Ham's F12/10% HI FBS/1% PSG). 20 μL cells per well were seeded directly into assay plates, and the plates were allowed to rest for 1 h at RT before incubating in a plate incubator overnight.
5 μL diluted compound was added to cells in each well, and the assay plate was incubated for 90 min at 37° C. 12.5 μL PathHunter detection reagent was added to each well of the assay plate, which was then covered and incubated for 1 h at RT. The plate was read on an Envision reader using the Luminescence protocol, and the data were exported for analysis.
The agonist Emax results were expressed as a percent of the dopamine control response ((measured specific response/control specific agonist response)×100) obtained in the presence of test article. The EC50 values (concentration producing a half-maximal specific response) were determined by non-linear regression analysis of the concentration-response curves.

[2] = target: T1, long isoform of human D2 receptor; assay: Arrestin Antagonist Assay (DRD2L PathHunter CHO-K1 cells, vs EC80 dopamine); conditions: for Emax: CHO-K1, read-out: β-arrestin (antagonist mode) Imax
[3] = target: T1, long isoform of human D2 receptor; assay: cAMP HTRF Agonist Assay (DRD2L PathHunter CHO-K1 cells, forskolin-stimulated); conditions: for Emax: CHO-K1, read-out: cAMP (agonist mode) Emax

T1 sequence (P14416 whole entry, canonical isoform): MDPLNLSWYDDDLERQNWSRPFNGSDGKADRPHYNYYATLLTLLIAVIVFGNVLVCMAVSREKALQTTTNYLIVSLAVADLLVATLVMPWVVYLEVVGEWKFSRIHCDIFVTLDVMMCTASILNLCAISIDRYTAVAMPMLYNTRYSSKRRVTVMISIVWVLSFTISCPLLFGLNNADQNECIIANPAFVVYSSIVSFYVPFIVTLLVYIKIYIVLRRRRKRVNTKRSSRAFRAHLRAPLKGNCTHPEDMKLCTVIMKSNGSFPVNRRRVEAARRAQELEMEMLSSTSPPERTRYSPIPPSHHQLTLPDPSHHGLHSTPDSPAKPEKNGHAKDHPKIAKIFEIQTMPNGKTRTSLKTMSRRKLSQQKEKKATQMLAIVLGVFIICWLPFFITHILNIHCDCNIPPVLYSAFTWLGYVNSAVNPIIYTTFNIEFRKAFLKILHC

N#Cc1cccc2c1CCN(CCCCOc1ccc3c(n1)NC(=O)CC3)C2 [Compound 78, 2-(4-((7-oxo-5,6,7,8-tetrahydro-1,8-naphthyridin-2-yl)oxy)butyl)-1,2,3,4-tetrahydroisoquinoline-5-carbonitrile] showed an EC50 [1] of 10 to 100 nM, an Emax [1] of 50 to 75% and an IC50 [2] greater than 10000 nM. It also gave an Emax [2] of less than 10%, an IC50 [3] of 10 to 100 nM and an Emax [3] of 50 to 75%.

For O=C1CCc2ccc(OCCCCN3CCc4ccsc4C3)nc2N1 [Compound 70, 7-(4-(4,5-dihydrothieno[2,3-c]pyridin-6(7H)-yl)butoxy)-3,4-dihydro-1,8-naphthyridin-2(1H)-one], the EC50 [1] was greater than 10000 nM, the Emax [1] was less than 10% and the IC50 [2] was 100 to 1000 nM. The Emax [2] was greater than 75%, the IC50 [3] was greater than 10000 nM and the Emax [3] was less than 10%.

Work on Oc1cccc2ccc(OCCCCN3CCc4cc(C(F)(F)F)ccc4C3)nc12 [Compound 17, 2-(4-(6-(trifluoromethyl)-3,4-dihydroisoquinolin-2(1H)-yl)butoxy)quinolin-8-ol] yielded an EC50 [1] greater than 10000 nM, an Emax [1] of less than 10% and an IC50 [2] of 1000 to 10000 nM. It also gave an Emax [2] greater than 75%, an IC50 [3] greater than 10000 nM and an Emax [3] of less than 10%.

c1ccc(N2CCN(CCCCOc3ccc4cn[nH]c4n3)CC2)nc1 [Compound 4, 6-(4-(4-(pyridin-2-yl)piperazin-1-yl)butoxy)-1H-pyrazolo[3,4-b]pyridine] showed an EC50 [1] of 10 to 100 nM, an Emax [1] greater than 75% and an IC50 [2] greater than 10000 nM. For the same compound, the Emax [2] was less than 10%, the IC50 [3] was less than 10 nM and the Emax [3] was greater than 75%.

With CCS(=O)(=O)Nc1cccc(OCCCCN2CCc3ccccc3C2)n1 [Compound 43, N-(6-(4-(3,4-dihydroisoquinolin-2(1H)-yl)butoxy)pyridin-2-yl)-ethanesulfonamide] the EC50 [1] was greater than 10000 nM, the Emax [1] was less than 10% and the IC50 [2] was 100 to 1000 nM. The Emax [2] was greater than 75%, the IC50 [3] was greater than 10000 nM and the Emax [3] was less than 10%.

O=c1ccc2ccc(OCCCCN3CCc4c(cccc4C(F)(F)F)C3)nc2[nH]1 [Compound 61, 7-(4-(5-(trifluoromethyl)-3,4-dihydroisoquinolin-2(1H)-yl)butoxy)-1,8-naphthyridin-2(1H)-one] showed an EC50 [1] of 10 to 100 nM, an Emax [1] greater than 75% and an IC50 [2] greater than 10000 nM. It also gave an Emax [2] of less than 10%, an IC50 [3] of less than 10 nM and an Emax [3] greater than 75%.

CCCOc1cccnc1N1CCN(CCCCOc2ccc3cccc(O)c3n2)CC1 [Compound 11, 2-(4-(4-(3-propoxypyridin-2-yl)piperazin-1-yl)butoxy)quinolin-8-ol] was tested, and the EC50 [1] was greater than 10000 nM, the Emax [1] was less than 10% and the IC50 [2] was 100 to 1000 nM. For the same compound, the Emax [2] was greater than 75%, the IC50 [3] was greater than 10000 nM and the Emax [3] was less than 10%.

O=c1ccc2ccc(OCCCCN3CCc4nn(-c5ccccn5)cc4C3)nc2[nH]1 [Compound 67, 7-(4-(2-(pyridin-2-yl)-6,7-dihydro-2H-pyrazolo[4,3-c]pyridin-5(4H)-yl)butoxy)-1,8-naphthyridin-2(1H)-one] gave an EC50 [1] greater than 10000 nM, an Emax [1] of less than 10% and an IC50 [2] of 100 to 1000 nM. For the same compound, the Emax [2] was greater than 75%, the IC50 [3] was 10 to 100 nM and the Emax [3] was 10 to 25%.

With COc1ccc2c(c1)CCN(CCCCOc1ccc3c(n1)NC(=O)CC3)C2 [Compound 71, 7-(4-(6-methoxy-3,4-dihydroisoquinolin-2(1H)-yl)butoxy)-3,4-dihydro-1,8-naphthyridin-2(1H)-one] the EC50 [1] was greater than 10000 nM, the Emax [1] was less than 10% and the IC50 [2] was 10 to 100 nM. It also gave an Emax [2] greater than 75%, an IC50 [3] greater than 10000 nM and an Emax [3] of less than 10%.

Clc1cccc(N2CCN(CCCCOc3ccc4cn[nH]c4c3)CC2)c1 [Compound 98, 6-(4-(4-(3-chlorophenyl)piperazin-1-yl)butoxy)-1H-indazole] gave an EC50 [1] of 10 to 100 nM, an Emax [1] of 25 to 50% and an IC50 [2] of 100 to 1000 nM. It also gave an Emax [2] of 25 to 50%, an IC50 [3] of 10 to 100 nM and an Emax [3] of 50 to 75%.

In the case of c1cc(OCCCCN2CCc3ccccc3C2)nc(-c2cc[nH]n2)c1 [Compound 44, 2-(4-((6-(1H-pyrazol-3-yl)pyridin-2-yl)oxy)butyl)-1,2,3,4-tetrahydroisoquinoline], the EC50 [1] is reported as less than 10 nM, the Emax [1] is reported as 10 to 25% and the IC50 [2] is reported as 10 to 100 nM. It also gave an Emax [2] greater than 75%, an IC50 [3] of less than 10 nM and an Emax [3] of 10 to 25%.

O=C1CCc2ccc(OCCCCN3CCc4c(Cl)cccc4C3)nc2N1 [Compound 76, 7-(4-(5-chloro-3,4-dihydroisoquinolin-2(1H)-yl)butoxy)-3,4-dihydro-1,8-naphthyridin-2(1H)-one] gave an EC50 [1] of less than 10 nM, an Emax [1] greater than 75% and an IC50 [2] greater than 10000 nM. It also gave an Emax [2] of less than 10%, an IC50 [3] of less than 10 nM and an Emax [3] greater than 75%.

With c1cc(OCCCCN2CCc3ccccc3C2)nc(-c2c[nH]cn2)c1 [Compound 51, 2-(4-((6-(1H-imidazol-4-yl)pyridin-2-yl)oxy)butyl)-1,2,3,4-tetrahydroisoquinoline] the EC50 [1] was greater than 10000 nM, the Emax [1] was less than 10% and the IC50 [2] was 100 to 1000 nM. For the same compound, the Emax [2] was greater than 75%, the IC50 [3] was greater than 10000 nM and the Emax [3] was less than 10%.

Work on c1ccc2c(N3CCN(CCCCOc4ccc5cn[nH]c5c4)CC3)cccc2c1 [Compound 92, 6-(4-(4-(naphthalen-1-yl)piperazin-1-yl)butoxy)-1H-indazole] yielded an EC50 [1] of less than 10 nM, an Emax [1] of 25 to 50% and an IC50 [2] of 10 to 100 nM. The Emax [2] was 50 to 75%, the IC50 [3] was 10 to 100 nM and the Emax [3] was 25 to 50%.

With O=C1CCc2ccc(OCCCCN3CCc4cc(C(F)(F)F)ccc4C3)nc2N1 [Compound 74, 7-(4-(6-(trifluoromethyl)-3,4-dihydroisoquinolin-2(1H)-yl)butoxy)-3,4-dihydro-1,8-naphthyridin-2(1H)-one] the EC50 [1] was greater than 10000 nM, the Emax [1] was less than 10% and the IC50 [2] was 100 to 1000 nM. For the same compound, the Emax [2] was greater than 75%, the IC50 [3] was 10 to 100 nM and the Emax [3] was 10 to 25%.

In the case of O=C1CCc2ccc(OCCCCN3CCc4nccnc4C3)cc2N1 [Compound 25, 7-(4-(7,8-dihydropyrido[3,4-b]pyrazin-6(5H)-yl)butoxy)-3,4-dihydroquinolin-2(1H)-one], the EC50 [1] is reported as 100 to 1000 nM, the Emax [1] is reported as 25 to 50% and the IC50 [2] is reported as 1000 to 10000 nM. The Emax [2] was 25 to 50%, the IC50 [3] was 1000 to 10000 nM and the Emax [3] was 50 to 75%.

Compound O=c1ccc2ccc(OCCCCN3CCc4nn(-c5ccccc5)cc4C3)nc2[nH]1 [Compound 66, 7-(4-(2-phenyl-6,7-dihydro-2H-pyrazolo[4,3-c]pyridin-5(4H)-yl)butoxy)-1,8-naphthyridin-2(1H)-one] has an EC50 [1] greater than 10000 nM, an Emax [1] of less than 10% and an IC50 [2] of 10 to 100 nM. The Emax [2] was greater than 75%, the IC50 [3] was 10 to 100 nM and the Emax [3] was 10 to 25%.

Compound N#Cc1ccc2c(c1)CCN(CCCCOc1ccc3ccc(=O)[nH]c3n1)C2 [Compound 57, 2-(4-((7-oxo-7,8-dihydro-1,8-naphthyridin-2-yl)oxy)butyl)-1,2,3,4-tetrahydroisoquinoline-6-carbonitrile] has an EC50 [1] greater than 10000 nM, an Emax [1] of less than 10% and an IC50 [2] of 10 to 100 nM. It also gave an Emax [2] greater than 75%, an IC50 [3] greater than 10000 nM and an Emax [3] of less than 10%.

Compound CS(=O)(=O)Nc1cccc(OCCCCN2CCc3ccccc3C2)n1 [Compound 42, N-(6-(4-(3,4-dihydroisoquinolin-2(1H)-yl)butoxy)pyridin-2-yl)methanesulfonamide] has an EC50 [1] greater than 10000 nM, an Emax [1] of less than 10% and an IC50 [2] of 1000 to 10000 nM. For the same compound, the Emax [2] was greater than 75%, the IC50 [3] was greater than 10000 nM and the Emax [3] was less than 10%.

O=c1ccc2ccc(OCCCCN3CCc4ccsc4C3)nc2[nH]1 [Compound 54, 7-(4-(4,5-dihydrothieno[2,3-c]pyridin-6(7H)-yl)butoxy)-1,8-naphthyridin-2(1H)-one] gave an EC50 [1] greater than 10000 nM, an Emax [1] of less than 10% and an IC50 [2] of less than 10 nM. It also gave an Emax [2] greater than 75%, an IC50 [3] greater than 10000 nM and an Emax [3] of less than 10%.

With CCOc1ccccc1N1CCN(CCCCOc2cccc(-c3cc[nH]n3)n2)CC1 [Compound 49, 1-(4-((6-(1H-pyrazol-3-yl)pyridin-2-yl)oxy)butyl)-4-(2-ethoxyphenyl)piperazine] the EC50 [1] was less than 10 nM, the Emax [1] was 10 to 25% and the IC50 [2] was less than 10 nM. The Emax [2] was 50 to 75%, the IC50 [3] was less than 10 nM and the Emax [3] was 50 to 75%.

For O=C1CCc2ccc(OCCCCN3CCc4c(cnn4-c4ccccc4)C3)cc2N1 [Compound 31, 7-(4-(1-phenyl-6,7-dihydro-1H-pyrazolo[4,3-c]pyridin-5(4H)-yl)butoxy)-3,4-dihydroquinolin-2(1H)-one], the EC50 [1] was less than 10 nM, the Emax [1] was greater than 75% and the IC50 [2] was greater than 10000 nM. It also gave an Emax [2] of less than 10%, an IC50 [3] of less than 10 nM and an Emax [3] greater than 75%.

Oc1cccc2ccc(OCCCCN3CCN(c4cccc(Cl)c4Cl)CC3)nc12 [Compound 5, 2-(4-(4-(2,3-dichlorophenyl)piperazin-1-yl)butoxy)quinolin-8-ol] showed an EC50 [1] of 10 to 100 nM, an Emax [1] of 10 to 25% and an IC50 [2] of 100 to 1000 nM. For the same compound, the Emax [2] was greater than 75%, the IC50 [3] was 10 to 100 nM and the Emax [3] was 25 to 50%.

With O=c1ccc2ccc(OCCCCN3CCc4c(Cl)cccc4C3)nc2[nH]1 [Compound 60, 7-(4-(5-chloro-3,4-dihydroisoquinolin-2(1H)-yl)butoxy)-1,8-naphthyridin-2(1H)-one] the EC50 [1] was less than 10 nM, the Emax [1] was greater than 75% and the IC50 [2] was greater than 10000 nM. The Emax [2] was less than 10%, the IC50 [3] was less than 10 nM and the Emax [3] was greater than 75%.

For O=C1CCc2ccc(OCCCCN3CCc4ncsc4C3)cc2N1 [Compound 26, 7-(4-(6,7-dihydrothiazolo[5,4-c]pyridin-5(4H)-yl)butoxy)-3,4-dihydroquinolin-2(1H)-one], the EC50 [1] was less than 10 nM, the Emax [1] was 10 to 25% and the IC50 [2] was 1000 to 10000 nM. The Emax [2] was greater than 75%, the IC50 [3] was 10 to 100 nM and the Emax [3] was 25 to 50%.

O=C1CCc2ccc(OCCCCN3CCc4cccc(C(F)(F)F)c4C3)nc2N1 [Compound 79, 7-(4-(8-(trifluoromethyl)-3,4-dihydroisoquinolin-2(1H)-yl)butoxy)-3,4-dihydro-1,8-naphthyridin-2(1H)-one] showed an EC50 [1] greater than 10000 nM, an Emax [1] of less than 10% and an IC50 [2] of 100 to 1000 nM. It also gave an Emax [2] greater than 75%, an IC50 [3] greater than 10000 nM and an Emax [3] of less than 10%.
